Results published in PMC5817852 (The Open Medicinal Chemistry Journal, 2018).
Like-named read-outs stand apart in the source and are kept apart here.

Legend:
[1] = system: HT29 colorectal carcinoma; experiment: qHTS cell viability screen (Cell Titer Glo), HT29; type: cell-based
[2] = system: MDA-MB-231 breast cancer cell line; experiment: qHTS cell viability screen (Cell Titer Glo), MDA-MB-231; type: cell-based
[3] = system: PC3 prostate cancer cell line; experiment: qHTS cell viability screen (Cell Titer Glo), PC3; type: cell-based; settings: PC3 prostate, 72 hours, cell viability Cell Titer Glo, read-out: CC50 PC3
[4] = BJ cell cytotoxicity counter screen; settings: human, BJ cells (normal human foreskin fibroblast cell line)
Text: Most analogs in the presented series are lipophilic while also containing a positively charged amine. Lipophilic basic amines can accumulate in cell membranes if their lipophilic atom groups form favorable non-polar contacts with lipid chains while their charged amine is interacting with fatty acid head groups. Such association with lipids can lead to cytotoxicity through membrane destabilization. Therefore, we evaluated a number of representative compounds against BJ cells, a normal human foreskin fibroblast cell line, where cytotoxicity was determined at 10 µM drug concentration, as described previously.
minimum locked at 0 and 100 respectively.
children with ALL in relapse.
foreskin fibroblast cell line (BJ).
Table 2. […] SSA: Sulindac sulfide

[5] = Homo sapiens, HT-29, 72 h, HT29 colorectal carcinoma, 72 hours, cell viability Cell Titer Glo, read-out: CC50 HT29
[6] = Homo sapiens, MDA-MB-231, 96 h, MDA-MB-231 breast, 96 hours, cell viability Cell Titer Glo, read-out: CC50 MDA-MB-231
[7] = HT29 colorectal carcinoma, 72 hours, cell viability Cell Titer Glo, read-out: CC50 HT29
[8] = MDA-MB-231 breast, 96 hours, cell viability Cell Titer Glo, read-out: CC50 MDA-MB-231

SMILES | CC50 [1, 5] [µM] | CC50 [2, 6] [µM] | CC50 ([3]; 72 h) [µM] | melting point [°C] | CC50 [3] [µM] | also measured
CSc1ccc(/C=C2/C(C)=C(CCNCCN(C)C)c3cc(F)ccc32)cc1 [Compound 10] | 1.97 ± 0.18 | 3.42 ± 1.5 | 4.38 ± 0.25 |  |  | 
CC1=C(CCNCc2ccccc2)c2cc(F)ccc2/C1=C\c1ccc([S+](C)[O-])cc1 (stereo not drawn) [Compound 11] | 15.1 ± 1.42 | 48.6 ± 7.85 | 41.5 ± 5 |  |  | 
CC1=C(CCNCc2ccccc2)c2cc(F)ccc2/C1=C\c1ccc(S(C)(=O)=O)cc1 [Compound 12] | 3.39 ± 0.28 | 4.52 ± 0.77 | 7.02 ± 0.48 | 96 to 98 |  | 
CSc1ccc(/C=C2/C(C)=C(CCN)c3cc(F)ccc32)cc1 [Compound 13] | 4.05 ± 0.16 | 7.2 ± 0.29 | 7.46 ± 0.46 |  |  | EC50 [4]: > 7.57 µM
CSc1ccc(/C=C2/C(C)=C(CCNC(=O)c3ccco3)c3cc(F)ccc32)cc1 [Compound 14] | 9.24 ± 1.18 | 16.8 ± 3.2 | 8.92 ± 0.83 | 168 to 170 |  | EC50 [4]: > 7.57 µM
CSc1ccc(/C=C2/C(C)=C(CN)c3cc(F)ccc32)cc1 [Compound 16] | 16 ± 6.08 | 19.3 ± 2.12 | 33.6 ± 6.59 |  |  | 
COc1cc(/C=C2/C(C)=C(CN)c3cc(F)ccc32)cc(OC)c1OC [Compound 17] | 14.6 ± 2.42 | 15.3 ± 4.44 | 29.7 ± 4.49 | 108 to 110 |  | 
CSc1ccc(/C=C2/C(C)=C(CNC(=O)Cc3ccccc3)c3cc(F)ccc32)cc1 [Compound 18] | 3.56 ± 1.25 | 4.06 ± 1.97 | 18.9 ± 9.71 |  |  | 
CSc1ccc(/C=C2/C(C)=C(CNC(=O)c3ccco3)c3cc(F)ccc32)cc1 [Compound 19] |  |  |  |  | 39.8 ± 6.81 | CC50 [1, 7]: 33.2 ± 3.43 µM; CC50 [2, 8]: 41.2 ± 7.6 µM
CSc1ccc(/C=C2/C(C)=C(CNC(=O)[C@@H](N)CO)c3cc(F)ccc32)cc1 [Compound 22] | 5.98 ± 0.24 | 7.43 ± 0.87 | 6.03 ± 0.41 | 146 to 148 |  | EC50 [4]: > 22.7 µM
COc1cc(/C=C2/C(C)=C(CNC(=O)c3ccco3)c3cc(F)ccc32)cc(OC)c1OC [Compound 27] |  |  |  |  | > 50 | CC50 [1, 7]: > 50 µM; CC50 [2, 8]: > 50 µM
COc1cc(/C=C2/C(C)=C(CNC(C)=O)c3cc(F)ccc32)cc(OC)c1OC [Compound 28] | 6.44 ± 1.4 | 5.77 ± 1.55 | 23.3 ± 2.61 | 183 to 185 |  | 
CCS(=O)(=O)NCC1=C(C)/C(=C/c2ccc(SC)cc2)c2ccc(F)cc21 [Compound 35] | 8.33 ± 1.64 | 11.9 ± 2.61 | 22.6 ± 3.25 | 131 to 133 |  | 
CSc1ccc(/C=C2/C(C)=C(CNS(=O)(=O)c3ccccc3)c3cc(F)ccc32)cc1 [Compound 36] | 9.94 ± 0.83 | 17.7 ± 2.1 | 39.6 ± 14.8 | 141 to 143 |  | 
CSc1ccc(/C=C2/C(C)=C(CNS(=O)(=O)c3ccc(C)cc3)c3cc(F)ccc32)cc1 [Compound 37] |  |  |  |  | > 50 | CC50 [1, 7]: 8.08 ± 0.6 µM; CC50 [2, 8]: 20.5 ± 5.18 µM
CSc1ccc(/C=C2/C(C)=C(CNS(=O)(=O)c3cccc4ccccc34)c3cc(F)ccc32)cc1 [Compound 38] | 17 ± 3.73 | 38.9 ± 10.3 | > 50 | 94 to 95 |  | 
CSc1ccc(/C=C2/C(C)=C(CNS(=O)(=O)c3ccc4ccccc4c3)c3cc(F)ccc32)cc1 [Compound 39] | 25.6 ± 5.91 | 12.9 ± 2.39 | > 50 | 152 to 154 |  | 
CSc1ccc(/C=C2/C(C)=C(CNS(=O)(=O)c3cccc4c(N(C)C)cccc34)c3cc(F)ccc32)cc1 [Compound 40] |  |  |  |  | > 50 | CC50 [1, 7]: 38.4 ± 10.1 µM; CC50 [2, 8]: > 50 µM
COc1cc(/C=C2/C(C)=C(CNS(C)(=O)=O)c3cc(F)ccc32)cc(OC)c1OC [Compound 41] |  |  |  |  | 18.9 ± 2.47 | CC50 [1, 7]: 20 ± 4.86 µM; CC50 [2, 8]: 12.9 ± 1.79 µM

SMILES | CC50 [1, 5] [µM] | CC50 [2, 6] [µM] | CC50 ([3]; 72 h) [µM] | melting point [°C] | CC50 [3] [µM] | also measured
CCS(=O)(=O)NCC1=C(C)/C(=C/c2cc(OC)c(OC)c(OC)c2)c2ccc(F)cc21 [Compound 42] | 15.6 ± 5.56 | 6.58 ± 1.39 | 15.1 ± 1.84 | 132 to 134 |  | 
COc1cc(/C=C2/C(C)=C(CNS(=O)(=O)c3ccccc3)c3cc(F)ccc32)cc(OC)c1OC [Compound 43] |  |  |  |  | 40.9 ± 16.8 | CC50 [1, 7]: 43.8 ± 23 µM; CC50 [2, 8]: 16.3 ± 3.96 µM
COc1cc(/C=C2/C(C)=C(CNS(=O)(=O)c3ccc(C)cc3)c3cc(F)ccc32)cc(OC)c1OC [Compound 44] |  |  |  |  | > 50 | CC50 [1, 7]: > 50 µM; CC50 [2, 8]: 44.5 ± 25.7 µM
COc1cc(/C=C2/C(C)=C(CNS(=O)(=O)c3cccc4ccccc34)c3cc(F)ccc32)cc(OC)c1OC [Compound 45] |  |  |  |  | > 50 | CC50 [1, 7]: > 50 µM; CC50 [2, 8]: > 50 µM
COc1cc(/C=C2/C(C)=C(CNS(=O)(=O)c3ccc4ccccc4c3)c3cc(F)ccc32)cc(OC)c1OC [Compound 46] | > 50 | > 50 | > 50 | 118 to 120 |  | 
COc1cc(/C=C2/C(C)=C(CNS(=O)(=O)c3cccc4c(N(C)C)cccc34)c3cc(F)ccc32)cc(OC)c1OC [Compound 47] |  |  |  |  | > 50 | CC50 [1, 7]: > 50 µM; CC50 [2, 8]: > 50 µM
CSc1ccc(/C=C2/C(C)=C(CN(Cc3ccccc3)Cc3ccccc3)c3cc(F)ccc32)cc1 [Compound 48] | > 50 | > 50 | > 50 |  |  | 
CSc1ccc(/C=C2/C(C)=C(CN(Cc3ccc(F)cc3)Cc3ccc(F)cc3)c3cc(F)ccc32)cc1 [Compound 50] |  |  |  |  | > 50 | CC50 [1]: > 50 µM; CC50 [2]: > 50 µM
CSc1ccc(/C=C2/C(C)=C(CN(Cc3ccc(N(C)C)cc3)Cc3ccc(N(C)C)cc3)c3cc(F)ccc32)cc1 [Compound 51] |  |  |  |  | > 50 | CC50 [1]: > 50 µM; CC50 [2]: > 50 µM
CSc1ccc(/C=C2/C(C)=C(CN(Cc3ccc4ccccc4c3)Cc3ccc4ccccc4c3)c3cc(F)ccc32)cc1 [Compound 52] |  |  |  |  | > 50 | CC50 [1]: > 50 µM; CC50 [2]: > 50 µM
CSc1ccc(/C=C2/C(C)=C(CN(CCc3ccccc3)CCc3ccccc3)c3cc(F)ccc32)cc1 [Compound 53] |  |  |  |  | > 50 | CC50 [1]: > 50 µM; CC50 [2]: > 50 µM
CSc1ccc(/C=C2/C(C)=C(CN(Cc3ccco3)Cc3ccco3)c3cc(F)ccc32)cc1 [Compound 54] |  |  |  |  | > 50 | CC50 [1]: > 50 µM; CC50 [2]: 48.8 ± 20.3 µM
COc1cc(/C=C2/C(C)=C(CN(Cc3ccccc3)Cc3ccccc3)c3cc(F)ccc32)cc(OC)c1OC [Compound 55] |  |  |  |  | > 50 | CC50 [1]: > 50 µM; CC50 [2]: > 50 µM
COc1cc(/C=C2/C(C)=C(CN(Cc3ccc(F)cc3)Cc3ccc(F)cc3)c3cc(F)ccc32)cc(OC)c1OC [Compound 57] |  |  |  |  | > 50 | CC50 [1]: > 50 µM; CC50 [2]: > 50 µM
COc1cc(/C=C2/C(C)=C(CN(Cc3ccc4ccccc4c3)Cc3ccc4ccccc4c3)c3cc(F)ccc32)cc(OC)c1OC [Compound 58] | > 50 | > 50 | > 50 | 95 to 97 |  | 
COc1ccc(CN(CC2=C(C)/C(=C/c3cc(OC)c(OC)c(OC)c3)c3ccc(F)cc32)Cc2ccc(OC)cc2)cc1 [Compound 59] |  |  |  |  | > 50 | CC50 [1]: > 50 µM; CC50 [2]: > 50 µM
COc1cc(/C=C2/C(C)=C(CN(CCc3ccccc3)CCc3ccccc3)c3cc(F)ccc32)cc(OC)c1OC [Compound 60] | > 50 | > 50 | > 50 |  |  | 
COc1cc(/C=C2/C(C)=C(CN(Cc3ccco3)Cc3ccco3)c3cc(F)ccc32)cc(OC)c1OC [Compound 61] |  |  |  |  | > 50 | CC50 [1]: > 50 µM; CC50 [2]: > 50 µM
